Where a name gives a salt, the structure may show the parent alone.
Key:
[1] = tested on: term human placenta (single cotyledon); assay: ex vivo human placental perfusion, closed-closed recirculation system; type: in vitro ADME; details: system closed for 1-5 h; peak and trough concentrations
[2] = cited from earlier work
[3] = cited from earlier work; remark: listed apart in the source
[4] = cited from earlier work; remark: listed apart in the source
[5] = tested on: term human placenta (single cotyledon); assay: ex vivo human placental perfusion, single cotyledon, open system; details: range over placentas

For `CN[C@H](CC(C)C)C(=O)N[C@H]1C(=O)N[C@@H](CC(N)=O)C(=O)N[C@H]2C(=O)N[C@H]3C(=O)N[C@H](C(=O)N[C@H](C(=O)O)c4cc(O)cc(O)c4-c4cc3ccc4O)[C@H](O)c3ccc(c(Cl)c3)Oc3cc2cc(c3O[C@@H]2O[C@H](CO)[C@@H](O)[C@H](O)[C@H]2O[C@H]2C[C@](C)(N)[C@H](O)[C@H](C)O2)Oc2ccc(cc2Cl)[C@H]1O` [vancomycin, vancomycin hydrochloride], the “accumulation of vancomycin (fetal)” value [1] is listed as “No accumulation”, the “excreted by glomerular filtration” value ([2]; non-pregnant subjects) is listed as 90% and the CSF levels ([2]; without meningitis) is listed as “undetectable”. The “heparin concentration above which vancomycin precipitates when mixed” value [3] was “more than 1 unit/ml”, the “fraction bound to plasma proteins (unavailable for transfer)” value [4] was “a third to a half” and the “bound to plasma proteins” value ([4]; non-pregnant subjects) was 30-55%. The “Clearance index, mean peak range” value ([5]; peak concentrations) was 0.000-0.080 and the “Clearance index, mean trough range” value ([5]; trough concentrations) was 0.00-0.17.

Source: paper PMC1784591 (Infectious Diseases in Obstetrics and Gynecology, 2004)
